{"source": "paper PMC10870435", "about": "“A novel complement C3 inhibitor CP40-KK protects against experimental pulmonary arterial hypertension via an inflammasome NLRP3 associated pathway” (Journal of Translational Medicine, 2024)", "key": {"[1]": {"experiment": "Plasma lipids and lung oxidative stress markers in PAH rats", "assay_type": "in vivo, rat", "experimental": "Blood samples were obtained from rats, and plasma lipid levels were measured with a total cholesterol assay kit and triglyceride assay kit (Nanjing Jiancheng Bioengineering Institute, Nanjing City, China). 2.5μL plasma or 2.5μL calibrator was added into 250μL working solution, and then incubated at 37 ℃ for 10 minutes. OD values were measured at 500nm using a microplate reader (Bio-tek, Vermont, USA).\nFigure S2. The effect of CP40-KK on oxidative stress in the lungs of the PAH rats. Representative Western blots (A) and quantification (B) of the NOX1, Gp91phox, NOX4 and SOD2 in lung homogenates of rat (B; n=6 per group)."}, "[2]": {"system": "rat complement C3 function", "experiment": "CH50 test (Mayer method) in vitro, peptide added to rat plasma", "assay_type": "biochemical", "settings": "0, 2.5, 5.0, 10, 20, 40 µM added to mixed wild-type SD rat plasma; sensitized sheep erythrocytes", "experimental": "The total functional complement was determined with a CH50 assay based on the modified method of Mayer. The 50% haemolytic standard tube was made by adding 0.3 ml 2% sheep erythrocytes (Chundubio, Wuhan, China) to 1.2 ml distilled water and then diluting with equivoluminal veronal buffer saline (Leagene, Beijing, China). The sheep erythrocytes were sensitized by adding a designated volume of a predetermined concentration of rabbit haemolytic serum (Solarbio, Beijing, China) in veronal buffer saline. The plasma of rats was first prediluted in veronal buffer saline at 1/5, 1/10, and 1/20. […] The OD values of supernatant liquid in the ten tubes were measured at 541 nm and compared with that of the 50% haemolytic standard tube to get the most similar value. The total haemolytic complement (CH50) = dilution ratio / the quantity of plasma needed to induce 50% lysis of sheep erythrocytes.\nPlasma samples for biological assays from rats were centrifuged and stored at -80°C until used, and the total functional complement was determined with a CH50 assay based on the modified method of Mayer. This assay involves determining the quantity of plasma needed to induce 50% lysis of sheep erythrocytes sensitized with antibody anti-sheep erythrocytes. […] The total hemolytic complement (CH50) = dilution ratio / the quantity of plasma needed to induce 50% lysis of sheep erythrocytes^5-7."}, "[3]": {"system": "C3 activation (C3a)", "experiment": "Plasma C3a western blot in PAH rats", "assay_type": "in vivo", "settings": "western blot of rat plasma; n = 6 per group", "experimental": "In the current study, two animal experiments were conducted successively. 30 rats were randomly divided into two groups (control group and MCT group, n = 15 per group) in the first experiment. MCT group rats received a single intraperitoneally injection of MCT (40 mg/kg) on day 1 to induce PAH while control group rats received an equivoluminal saline injection intraperitoneally. For the second animal experiment, the rats were assigned into four groups (control group, MCT group, CP40-KK group, and MCT + CP40-KK group, n = 15 per group). The control group was given the same volume of saline subcutaneously while the CP40-KK group rats only received CP40-KK (2 mg/kg) by subcutaneous injection from day 15 to day 28 continuously. […]\n[…] Protein concentration was quantified using a BCA reagent. […] To compare and quantify levels of proteins, the density of each band was measured using Image J software. Equal loading for total cell or tissue lysates was determined by β-Actin western blot.\n[…] Protein concentration was quantified using a BCA reagent. […] To compare and quantify levels of proteins, the density of each band was measured using Image J software. Equal loading for total cell or tissue lysates was determined by β-Actin western blot^3,4."}}, "note": "Bridge positions count the residues as written; N and C are the ends. Square brackets hold non-standard residues; d marks the D form. Peptide text beside a SMILES is read from it. Trp(1-Me) = Cn1cc(C[C@H](N)C(=O)O)c2ccccc21; NMeI = CC[C@H](C)[C@H](NC)C(=O)O; Sar = CNCC(=O)O"}
{"smiles": "CC[C@H](C)[C@H](NC(=O)[C@H](N)Cc1ccc(O)cc1)C(=O)N[C@H]1CSSC[C@@H](C(=O)N(C)[C@H](C(=O)N[C@@H](CCCCN)C(=O)N[C@@H](CCCCN)C(N)=O)[C@@H](C)CC)NC(=O)[C@H](CCCNC(=N)N)NC(=O)[C@H](Cc2c[nH]cn2)NC(=O)CN(C)C(=O)[C@H](Cc2c[nH]c3ccccc23)NC(=O)[C@H](CC(=O)O)NC(=O)[C@H](CCC(N)=O)NC(=O)[C@H](Cc2cn(C)c3ccccc23)NC(=O)[C@H](C(C)C)NC1=O", "note": "[CP40-KK] (H-[dY]ICV[Trp(1-Me)]QDW[Sar]HRC[NMeI]KK-NH2; disulfide 3-12 (inferred))", "values": [{"measurement": "effect on oxidative stress (NOX1, Gp91phox, NOX4, SOD2)", "setting": "[1]; lung homogenates, western blot, Figure S2, n=6 per group", "value": "no effect"}, {"measurement": "effect on lipid metabolism (triglyceride, cholesterol)", "setting": "[1]; rat plasma, PAH model groups, Figure S1", "value": "no effect"}, {"measurement": "CH50 value (rat C3 function) in vitro", "setting": "[2]", "value": "blocked rat C3 function in a dosage-dependent manner"}, {"measurement": "plasma C3a (C3 activation ex vivo)", "setting": "[3]", "value": "significantly inhibit the C3 activation"}]}
